Results reported in patent US9572828B2, “Treatment for melanoma” (The Board of Regents of the University of Texas System, priority 2013, dated 2017).

Experiments:
[1] = system: BRAFV600E/K mutant advanced or malignant melanoma; settings: cited from earlier work
[2] = system: primary melanomas from patients; experiment: xenograft assay, digitoxin and/or GSK1120212; assay type: in vivo, NSG mice; settings: 0.5 mg/kg/day each agent by oral gavage; melanomas from multiple patients, with and without BRAF mutations
Protocol: Melanoma cells were injected subcutaneously in the right flanks of immunocompromised NSG mice. When tumors became palpable, mice were randomized to four different treatments. […] Control mice received vehicle only (200 μl 0.5% promethylcellulose, 0.2% Tween80 and 5% DMSO per day). Tumors were measured every 2-3 days with calipers.
In these experiments, metastatic melanoma cells were injected subcutaneously in the right flanks of immunocompromised NSG mice. When tumors became palpable, mice were randomized to four different treatments. […] Control mice received vehicle only (200 μl 0.5% promethylcellulose, 0.2% Tween80 and 5% DMSO per day). Tumors were measured every 2-3 days with calipers and bioluminescence imaging was performed when the diameter of the tumors in vehicle treated mice reached 2 cm.

[3] = 4 hours after 0.5 mg/kg injection (FIG. 1C)
[4] = human, in vivo; cited from earlier work
[5] = human, in vivo; cited from earlier work; remark: listed apart in the source

## CC(=O)Nc1cccc(-n2c(=O)n(C3CC3)c(=O)c3c(Nc4ccc(I)cc4F)n(C)c(=O)c(C)c32)c1 [Trametinib]
[1]; MEKi class effect
  chorioretinopathy: < 1%
  decreased ejection fraction: 7%
[1]; Trametinib arm
  Grade 3 hypertension: 12%
  Grade 3 rash: 7%

## C[C@H]1O[C@@H](O[C@H]2[C@@H](O)C[C@H](O[C@H]3[C@@H](O)C[C@H](O[C@H]4CC[C@@]5(C)[C@H](CC[C@@H]6[C@@H]5CC[C@]5(C)[C@@H](C7=CC(=O)OC7)CC[C@]65O)C4)O[C@@H]3C)O[C@@H]2C)C[C@H](O)[C@@H]1O [digitoxin]
[2]
  growth of human melanoma xenografts: slowed the growth
[3]
  doses in the plasma of mice: fell within the therapeutic range in humans

## C[C@H]1O[C@@H](O[C@H]2[C@@H](O)C[C@H](O[C@H]3[C@@H](O)C[C@H](O[C@H]4CC[C@@]5(C)[C@H](CC[C@@H]6[C@@H]5C[C@@H](O)[C@]5(C)[C@@H](C7=CC(=O)OC7)CC[C@]65O)C4)O[C@@H]3C)O[C@@H]2C)C[C@H](O)[C@@H]1O [digoxin]
[4]
  half-life: about 36 hours
[5]
  frequency of common adverse effects (loss of appetite, nausea, vomiting, diarrhea etc.): ≥ 1 % of patients
  plasma concentration at which adverse effects are rare: < 0.8 ng/mL
